Measured values taken from PubChem BioAssay (NCI).
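Growth conditions: 96-well plates. Treatment: test compound, 48 hours, 5 concentrations. Analysis: linear interpolation between bracketing concentrations; unreached endpoints set to highest concentration. At the TGI there is no net growth.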

Columns and labels:
Assay in all cases: NCI anticancer screen, dose series, 48 h
786-0 renal = tested on: 786-0 renal
A498 renal = tested on: A498 renal
A549 NSCLC = tested on: A549 NSCLC
ACHN renal = tested on: ACHN renal
BT-549 breast = tested on: BT-549 breast
CAKI-1 renal = tested on: CAKI-1 renal
CCRF-CEM leukemia = tested on: CCRF-CEM leukemia
COLO 205 colon = tested on: COLO 205 colon
DU-145 prostate = tested on: DU-145 prostate
EKVX NSCLC = tested on: EKVX NSCLC
HCC-2998 colon = tested on: HCC-2998 colon
HCT-116 colon = tested on: HCT-116 colon
HCT-15 colon = tested on: HCT-15 colon
HL-60(TB) leukemia = tested on: HL-60(TB) leukemia
HOP-62 NSCLC = tested on: HOP-62 NSCLC
HOP-92 NSCLC = tested on: HOP-92 NSCLC
HS 578T breast = tested on: HS 578T breast
HT29 colon = tested on: HT29 colon
IGROV1 ovarian = tested on: IGROV1 ovarian
K-562 leukemia = tested on: K-562 leukemia
KM12 colon = tested on: KM12 colon
LOX IMVI melanoma = tested on: LOX IMVI melanoma
M14 melanoma = tested on: M14 melanoma
MALME-3M melanoma = tested on: MALME-3M melanoma
MCF7 breast = tested on: MCF7 breast
MDA-MB-231 breast = tested on: MDA-MB-231 breast
MDA-MB-435 = tested on: MDA-MB-435
MDA-N = tested on: MDA-N
MOLT-4 leukemia = tested on: MOLT-4 leukemia
NCI-H226 lung = tested on: NCI-H226 lung
NCI-H23 lung = tested on: NCI-H23 lung
NCI-H460 lung = tested on: NCI-H460 lung
NCI/ADR-RES ovarian = tested on: NCI/ADR-RES ovarian
OVCAR-3 ovarian = tested on: OVCAR-3 ovarian
OVCAR-4 ovarian = tested on: OVCAR-4 ovarian
OVCAR-5 ovarian = tested on: OVCAR-5 ovarian
OVCAR-8 ovarian = tested on: OVCAR-8 ovarian
PC-3 prostate = tested on: PC-3 prostate
RPMI-8226 leukemia = tested on: RPMI-8226 leukemia
RXF 393 renal = tested on: RXF 393 renal
SF-268 CNS = tested on: SF-268 CNS
SF-295 CNS = tested on: SF-295 CNS
SF-539 CNS = tested on: SF-539 CNS
SK-MEL-2 melanoma = tested on: SK-MEL-2 melanoma
SK-MEL-28 melanoma = tested on: SK-MEL-28 melanoma
SK-MEL-5 melanoma = tested on: SK-MEL-5 melanoma
SK-OV-3 ovarian = tested on: SK-OV-3 ovarian
SN12C renal = tested on: SN12C renal
SNB-19 CNS = tested on: SNB-19 CNS
SNB-75 CNS = tested on: SNB-75 CNS
SR leukemia = tested on: SR leukemia
SW-620 colon = tested on: SW-620 colon
T-47D breast = tested on: T-47D breast
TK-10 renal = tested on: TK-10 renal
U251 CNS = tested on: U251 CNS
UACC-257 melanoma = tested on: UACC-257 melanoma
UACC-62 melanoma = tested on: UACC-62 melanoma
UO-31 renal = tested on: UO-31 renal

Measured: TGI

CC1CCc2c(c(CC3CC(=O)NC(=O)C3)nn2-c2ccccc2)C1 (stereo not drawn)
> 100 µM: all assays above
